Legend:
[1] = biological target: NAMPT (human, recombinant, C-terminally His-tagged) (Homo sapiens, UniProt P43490); assay: Time-Resolved Fluorescence Resonance Energy Transfer (TR-FRET) Binding Assay of NAMPT; settings: without substrates; 6.8 nM NAMPT, 200 nM probe, 3 hours equilibration
In short: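 11-pt half-log compound series; final 6.8 nM NAMPT, 200 nM OG488 nicotinamide-competitive probe, 1 nM Tb-anti-His Ab, 2% DMSO, HEPES pH 7.5/NaCl/MgCl2/DTT/glycerol buffer. 3 h RT equilibration. Em520/Em495 ratio (Ex 337 nm), control-normalized, 4-parameter fit → IC50.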

NAMPT = NAMPT (Homo sapiens, UniProt P43490); assay: TR-FRET Binding Assay of NAMPT with PRPP; settings: with 200 μM PRPP and 2.5 mM ATP; 2 nM NAMPT, 2 nM probe, 16 hours equilibration
NAMPT, sequence (P43490 whole entry): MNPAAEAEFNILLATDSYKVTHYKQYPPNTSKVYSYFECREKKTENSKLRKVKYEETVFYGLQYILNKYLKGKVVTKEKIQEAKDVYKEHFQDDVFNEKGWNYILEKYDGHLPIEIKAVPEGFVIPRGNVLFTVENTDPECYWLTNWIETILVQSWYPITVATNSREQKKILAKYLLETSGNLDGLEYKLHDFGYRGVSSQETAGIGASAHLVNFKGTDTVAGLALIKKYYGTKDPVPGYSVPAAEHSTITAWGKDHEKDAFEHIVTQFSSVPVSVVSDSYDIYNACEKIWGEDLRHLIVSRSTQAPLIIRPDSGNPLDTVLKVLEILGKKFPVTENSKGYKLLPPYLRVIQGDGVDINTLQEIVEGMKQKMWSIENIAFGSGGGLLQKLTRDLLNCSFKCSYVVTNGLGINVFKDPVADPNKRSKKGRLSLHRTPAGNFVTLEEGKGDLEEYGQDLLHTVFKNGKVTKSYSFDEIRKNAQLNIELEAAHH
In short: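 TR-FRET probe-displacement binding with 2 nM NAMPT, 2 nM probe and 1 nM Tb-anti-His antibody, run in the presence of 200 μM PRPP and 2.5 mM ATP at 2% DMSO. Equilibrated 16 hours before reading so test compounds could undergo enzymatic modification.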

PC3 cells = assay: NAMPT Cell Proliferation Assay; type: cell-based; settings: Homo sapiens, PC-3, 120 h, 5 days incubation, cell viability by Cell Titer Glo
In short: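 Seed PC3 at 500 cells/well (RPMI, 10% HI-FBS), attach overnight; add compound, 10-fold series 10 μM → 1×10^−5 μM; incubate 5 d, 37° C/5% CO2; luminescent viability readout; fit % inhibition sigmoidally for IC50.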

NAMPT (human, recombinant, C-terminally His-tagged), sequence (P43490 whole entry): as above

SMILES: O=C(NCc1ccc2nccn2c1)c1cnc(N2CCc3ccccc3C2)s1 [Example 108, 2-(3,4-dihydroisoquinolin-2(1H)-yl)-N-(imidazo[1,2-a]pyridin-6-ylmethyl)-1,3-thiazole-5-carboxamide]
- IC50 [1]: 1770 nM
- IC50 (NAMPT): 1.05 nM
- IC50 (PC3 cells): 7660 nM

SMILES: O=C(Nc1ccc(C2CCN(C(=O)C3CCOCC3)CC2)cc1)Nc1ccc2nccn2c1 [Example 109, 1-imidazo[1,2-a]pyridin-6-yl-3-{4-[1-(tetrahydro-2H-pyran-4-ylcarbonyl)piperidin-4-yl]phenyl}urea]
- IC50 [1]: 340 nM
- IC50 (NAMPT): 0.209 nM
- IC50 (PC3 cells): 52.2 nM

SMILES: O=C(Nc1ccc(C2CCN(C(=O)CC3CCOC3)CC2)cc1)Nc1ccc2nccn2c1 (stereo not drawn) [Example 110, 1-imidazo[1,2-a]pyridin-6-yl-3-{4-[1-(tetrahydrofuran-3-ylacetyl)piperidin-4-yl]phenyl}urea]
- IC50 [1]: 423 nM
- IC50 (NAMPT): 0.174 nM
- IC50 (PC3 cells): 202 nM

SMILES: O=C(Nc1ccc(C2CCN(C(=O)CC3CCCO3)CC2)cc1)Nc1ccc2nccn2c1 (stereo not drawn) [Example 111, 1-imidazo[1,2-a]pyridin-6-yl-3-{4-[1-(tetrahydrofuran-2-ylacetyl)piperidin-4-yl]phenyl}urea]
- IC50 [1]: 263 nM
- IC50 (NAMPT): 0.209 nM
- IC50 (PC3 cells): 75.5 nM

SMILES: O=C(Nc1ccc(C2CCN(C(=O)c3ccccc3)CC2)cc1)Nc1ccc2nccn2c1 [Example 112, 1-[4-(1-benzoylpiperidin-4-yl)phenyl]-3-imidazo[1,2-a]pyridin-6-ylurea]
- IC50 [1]: 46.5 nM
- IC50 (NAMPT): 0.169 nM
- IC50 (PC3 cells): 6.96 nM

SMILES: O=C(Nc1ccc(C2CCN(C(=O)C3CCCO3)CC2)cc1)Nc1ccc2nccn2c1 (stereo not drawn) [Example 113, 1-imidazo[1,2-a]pyridin-6-yl-3-{4-[1-(tetrahydrofuran-2-ylcarbonyl)piperidin-4-yl]phenyl}urea]
- IC50 [1]: 356 nM
- IC50 (NAMPT): 0.169 nM
- IC50 (PC3 cells): 93.3 nM

SMILES: CC(C)(C)OC(=O)N1CCC(Oc2ccc(C(=O)NCc3ccc4nccn4c3)cc2)CC1 [Example 114, tert-butyl 4-{4-[(imidazo[1,2-a]pyridin-6-ylmethyl)carbamoyl]phenoxy}piperidine-1-carboxylate]
- IC50 [1]: 818 nM
- IC50 (NAMPT): 1.11 nM
- IC50 (PC3 cells): 142 nM

SMILES: CC(C)OCCNC(=O)N(CC1CCCO1)c1ncc(C(=O)NCc2ccc3nccn3c2)s1 (stereo not drawn) [Example 115, N-(imidazo[1,2-a]pyridin-6-ylmethyl)-2-[{[2-(propan-2-yloxy)ethyl]carbamoyl}(tetrahydrofuran-2-ylmethyl)amino]-1,3-thiazole-5-carboxamide]
- IC50 [1]: 243 nM
- IC50 (NAMPT): 0.676 nM
- IC50 (PC3 cells): 6.38 nM

SMILES: O=C(NCc1ccc2nccn2c1)c1cnc(N2C(=O)OCC2C2CCOC2)s1 (stereo not drawn) [Example 116, N-(imidazo[1,2-a]pyridin-6-ylmethyl)-2-[2-oxo-4-(tetrahydrofuran-3-yl)-1,3-oxazolidin-3-yl]-1,3-thiazole-5-carboxamide]
- IC50 [1]: 863 nM
- IC50 (NAMPT): 0.69 nM
- IC50 (PC3 cells): 61.3 nM

SMILES: O=C(CC1CCCC1)Nc1ccc(C(=O)NCc2ccn3ccnc3c2)cc1 [Example 117, 4-[(cyclopentylacetyl)amino]-N-(imidazo[1,2-a]pyridin-7-ylmethyl)benzamide]
- IC50 [1]: 392 nM
- IC50 (NAMPT): 0.436 nM
- IC50 (PC3 cells): 63.9 nM

SMILES: O=C(CC1CCCC1)Nc1ccc(NC(=O)NCc2ccn3ccnc3c2)cc1 [Example 118, 2-cyclopentyl-N-(4-{[(imidazo[1,2-a]pyridin-7-ylmethyl)carbamoyl]amino}phenyl)acetamide]
- IC50 [1]: 35.2 nM
- IC50 (NAMPT): 0.234 nM
- IC50 (PC3 cells): 18.2 nM

SMILES: CC(C)Cn1cc(-c2ccc(C(=O)NCc3ccc4nccn4c3)cc2)cn1 [Example 119, N-(imidazo[1,2-a]pyridin-6-ylmethyl)-4-[1-(2-methylpropyl)-1H-pyrazol-4-yl]benzamide]
- IC50 [1]: 942 nM
- IC50 (NAMPT): 0.783 nM
- IC50 (PC3 cells): 146 nM

SMILES: CC(C)Cn1cc(-c2ccc(C(=O)NCc3ccc4nccn4c3)o2)cn1 [Example 120, N-(imidazo[1,2-a]pyridin-6-ylmethyl)-5-[1-(2-methylpropyl)-1H-pyrazol-4-yl]furan-2-carboxamide]
- IC50 [1]: 73.9 nM
- IC50 (NAMPT): 0.367 nM
- IC50 (PC3 cells): 90.8 nM
